From US8293979B2, “Weed controller metabolism proteins, genes, thereof and use of the same” (Sumitomo Chemical Company, Limited, priority 2001, dated 2012)

Assays:
[1] = system: leaf pieces derived from the tobacco to which the present invention DNA (A1) was introduced; test: Herbicidal damage of tobacco leaf pieces on MS agar medium containing compound (II); assay type: cell-based, Nicotiana tabacum strain SR1; conditions: MS agar medium containing 0.1 mg/L of compound (II), in the light at room temperature, 7th day of culturing
Description: Then, according to the method described in Manual for Gene Manipulation of Plant (by Hirofumi UCHIMIYA, Kodan-sha Scientific, 1992), the gene was introduced into tobacco. Agrobacterium strains bearing the above plasmids were each cultured at 28° C. overnight in LB medium containing 300 mg/L streptomycin, 100 mg/L rifampicin and 25 mg/L kanamycin, and then leaf pieces of tobacco (Nicotiana tabacum strain SR1) cultured sterilely were dipped in the liquid culture medium. The leaf pieces were planted and cultured at room temperature for 2 days in the light in MS agar medium (MS inorganic salts, MS vitamins, 3% sucrose and 0.8% agar; described in Murashige T. and Skoog F., Physiol. Plant. (1962) 15, p 473) containing 0.1 mg/L of naphthalene acetic acid and 1.0 mg/L of benzyl aminopurine. Then, the leaf pieces were washed with sterilized water and cultured for 7 days on MS agar medium containing 0.1 mg/L of naphthalene acetic acid, 1.0 mg/L of benzyl aminopurine and 500 mg/L of cefotaxime. Next, the leaf pieces were transplanted and cultured in MS agar medium containing 0.1 mg/L of naphthalene acetic acid, 1.0 mg/L of benzyl aminopurine, 500 mg/L of cefotaxime and 100 mg/L of kanamycin. The culture was conducted continuously for 4 months while transplanting the leaf pieces to fresh medium of the same composition at intervals of 4 weeks. […]

[2] = system: present invention protein (A11); test: Detection of the ability to convert compound (II) to compound (III), E. coli pKSN849AF extract; assay type: in vitro ADME, Streptomyces nogalator IFO13445; conditions: 3 ppm of compound (II) labeled with 14C, components A, B, 10 minutes at 30° C.
Description: Reaction solutions of 30 μl were prepared and maintained for 1 hour at 30° C. The reaction solutions consisted of a 0.1M potassium phosphate buffer (pH7.0) containing 3 ppm of compound (II) labeled with ^14C, 2 mM of β-NADPH (hereinafter, referred to as “component A”) (Oriental Yeast Company), 0.2 mg/ml of a ferredoxin derived from spinach (hereinafter referred to as “component B”) (Sigma Company), 1 U/ml of ferredoxin reductase (hereinafter, referred to as “component C”) (Sigma Company) and 18 μl of the supernatant fraction recovered in Example 4(2). Further, there were prepared and maintained similarly reaction solutions having no addition of at least one component utilized in the composition of the above reaction solution, selected from component A, component B and component C. […] Next, the imaging plate was analyzed on Image Analyzer BAS2000 (Fuji Film Company). […]
(§1) Reaction solutions of 30 μl were prepared and maintained for 10 minutes at 30° C. […] Similarly to Example 4(3), the reaction solutions after the maintenance were extracted with ethyl acetate and the extracted layers were TLC analyzed. […] A spot corresponding to compound (III) was detected from the reaction solution containing E. coli pKSN849AF extract. In contrast, such a spot was not detected from the reaction solution containing E. coli pKSN2 extract.

[3] = system: present invention protein (A13); test: Detection of the ability to convert compound (II) to compound (III), E. coli pKSN474F extract; assay type: in vitro ADME, Streptomyces thermocoerulesces IFO 14273t; conditions: 3 ppm of compound (II) labeled with 14C, components A, B, 10 minutes at 30° C.
Description: (§2) Reaction solutions of 30 μl were prepared and maintained for 10 minutes at 30° C. The reaction solutions consisted of a 0.1M potassium phosphate buffer (pH7.0) containing 3 ppm of compound (II) labeled with ^14C, 2 mM of β-NADPH (hereinafter, referred to as “component A”) (Oriental Yeast Company), 2 mg/ml of a ferredoxin derived from spinach (hereinafter referred to as “component B”) (Sigma Company), 0.1 U/ml of ferredoxin reductase (hereinafter, referred to as “component C”) (Sigma Company) and 23 μl of the supernatant fraction recovered in Example 32(2). Similarly to Example 4(3), the reaction solutions after the maintenance were extracted with ethyl acetate and the extracted layers were TLC analyzed. […] A spot corresponding to compound (III) was detected from the reaction solution containing E. coli pKSN849AF extract. In contrast, such a spot was not detected from the reaction solution containing E. coli pKSN2 extract.
as §1, with “The” for “Similarly to Example 4(3), the”, “pKSN474F” for “pKSN849AF”

[4] = system: present invention protein (A18); test: Detection of the ability to convert compound (II) to compound (III), E. coli pKSN646BF extract; assay type: in vitro ADME, Streptomyces achromogenes IFO 12735; conditions: 3 ppm of compound (II) labeled with 14C, components A, B, 10 minutes at 30° C.
Description: as §2
as §1, with “Similarly to Example 32(3), reaction” for “Reaction”, “The” for “Similarly to Example 4(3), the”, “pKSN646BF” for “pKSN849AF”

C[C@@H](Oc1cc(-n2c(=O)cc(C(F)(F)F)n(C)c2=O)c(F)cc1Cl)C(=O)O [compound (II)]
herbicidal damage of the leaf pieces [1]: grew continuously
spot corresponding to compound (III) labeled with 14C (TLC) [2]: detected
spot corresponding to compound (III) labeled with 14C (TLC) [3]: detected
spot corresponding to compound (III) labeled with 14C (TLC) [4]: detected
